Reference: patent publication US9617253B2, “Molecules having pesticidal utility, and intermediates, compositions, and processes, related thereto” (Dow AgroSciences LLC, priority 2015, dated 2017)

Tests used:
[1] = test system: Beet Armyworm (Spodoptera exigua, LAPHEG); assay: Bioassay on Beet Armyworm (BAW), 128-well diet tray assay; format: in vivo; conditions: 168 h, second instar BAW larvae, 50 μg/cm^2 on artificial diet, 25° C., five to seven days, average of eight wells, read-out: BAW % Control (or Mortality) rating
Description: (§1) Certain molecules disclosed in this document were tested against BAW and CL using procedures described in the following examples. In the reporting of the results, the “BAW & CL Rating Table” was used (See Table Section).
Bioassays on BAW were conducted using a 128-well diet tray assay. One to five second instar BAW larvae were placed in each well (3 mL) of the diet tray that had been previously filled with 1 mL of artificial diet to which 50 μg/cm^2 of the test molecule (dissolved in 50 μL of 90:10 acetone-water mixture) had been applied (to each of eight wells) and then allowed to dry. Trays were covered with a clear self-adhesive cover, vented to allow gas exchange, and held at 25° C., 14:10 light-dark for five to seven days. Percent mortality was recorded for the larvae in each well; activity in the eight wells was then averaged. The results are indicated in the table entitled “Table ABC: Biological Results” (See Table Section).

[2] = test system: Cabbage Looper (Trichoplusia ni, TRIPNI); assay: Bioassay on Cabbage Looper (CL), 128-well diet tray assay; format: in vivo; conditions: 168 h, second instar CL larvae, 50 μg/cm^2 on artificial diet, 25° C., five to seven days, average of eight wells, read-out: CL % Control (or Mortality) rating
Description: as §1
Bioassays on CL were conducted using a 128-well diet tray assay. One to five second instar CL larvae were placed in each well (3 mL) of the diet tray that had been previously filled with 1 mL of artificial diet to which 50 μg/cm^2 of the test molecule (dissolved in 50 μL of 90:10 acetone-water mixture) had been applied (to each of eight wells) and then allowed to dry. Trays were covered with a clear self-adhesive cover, vented to allow gas exchange, and held at 25° C., 14:10 light-dark for five to seven days. Percent mortality was recorded for the larvae in each well; activity in the eight wells was then averaged. The results are indicated in the table entitled “Table ABC: Biological Results” (See Table Section).

SMILES	mortality at 50 µg/cm2 [1] [%]	mortality at 50 µg/cm2 [2] [%]
Cc1ccc(C(C)C)c(N2C(=O)CS/C2=N\C(=O)Nc2ccc(COc3ncn(-c4ccc(OC(F)(F)F)cc4)n3)cc2)c1 [F1, (Z)-1-(3-(2-isopropyl-5-methylphenyl)-4-oxothiazolidin-2-ylidene)-3-(4-(((1-(4-(trifluoromethoxy)phenyl)-1H-1,2,4-triazol-3-yl)oxy)methyl)phenyl)urea]	50 to 100	50 to 100
Cc1ccc(C(C)C)c(N2C(=O)CS/C2=N\C(=O)Nc2ccc(COc3ncn(-c4ccc(OC(F)(F)F)cc4)n3)cc2F)c1 [F2, (Z)-1-(2-Fluoro-4-(((1-(4-(trifluoromethoxy)phenyl)-1H-1,2,4-triazol-3-yl)oxy)methyl)phenyl)-3-(3-(2-isopropyl-5-methylphenyl)-4-oxothiazolidin-2-ylidene)urea]	50 to 100	50 to 100
Cc1ccc(C(C)C)c(N2C(=O)CS/C2=N\C(=O)Nc2ccc(COc3ncn(-c4ccc(OC(F)(F)F)cc4)n3)c(F)c2)c1 [F3, (Z)-1-(3-Fluoro-4-(((1-(4-(trifluoromethoxy)phenyl)-1H-1,2,4-triazol-3-yl)oxy)methyl)phenyl)-3-(3-(2-isopropyl-5-methylphenyl)-4-oxothiazolidin-2-ylidene)urea]	50 to 100	50 to 100
COc1cc(NC(=O)/N=C2\SCC(=O)N2c2cc(C)ccc2C(C)C)ccc1COc1ncn(-c2ccc(OC(F)(F)F)cc2)n1 [F4, (Z)-1-(3-(2-Isopropyl-5-methylphenyl)-4-oxothiazolidin-2-ylidene)-3-(3-methoxy-4-(((1-(4-(trifluoromethoxy)phenyl)-1H-1,2,4-triazol-3-yl)oxy)methyl)phenyl)urea]	50 to 100	50 to 100
CCCc1ccc(C)cc1N1C(=O)CS/C1=N\C(=O)Nc1ccc(COc2ncn(-c3ccc(OC(F)(F)F)cc3)n2)cc1F [F6, (Z)-1-(2-Fluoro-4-(((1-(4-(trifluoromethoxy)phenyl)-1H-1,2,4-triazol-3-yl)oxy)methyl)phenyl)-3-(3-(5-methyl-2-propylphenyl)-4-oxothiazolidin-2-ylidene)urea]	50 to 100	50 to 100
CCCc1ccc(C)cc1N1C(=O)CS/C1=N\C(=O)Nc1ccc(COc2ncn(-c3ccc(OC(F)(F)F)cc3)n2)c(F)c1 [F7, (Z)-1-(3-Fluoro-4-(((1-(4-(trifluoromethoxy)phenyl)-1H-1,2,4-triazol-3-yl)oxy)methyl)phenyl)-3-(3-(5-methyl-2-propylphenyl)-4-oxothiazolidin-2-ylidene)urea]	50 to 100	50 to 100
CCCc1ccc(C)cc1N1C(=O)CS/C1=N\C(=O)Nc1ccc(COc2ncn(-c3ccc(OC(F)(F)F)cc3)n2)c(OC)c1 [F10, (Z)-1-(3-Methoxy-4-(((1-(4-(trifluoromethoxy)phenyl)-1H-1,2,4-triazol-3-yl)oxy)methyl)phenyl)-3-(3-(5-methyl-2-propylphenyl)-4-oxothiazolidin-2-ylidene)urea]	0	0
COCc1ccc(C)cc1N1C(=O)CS/C1=N\C(=O)Nc1ccc(COc2ncn(-c3ccc(OC(F)(F)F)cc3)n2)c(OC)c1 [F11, (Z)-1-(3-Methoxy-4-(((1-(4-(trifluoromethoxy)phenyl)-1H-1,2,4-triazol-3-yl)oxy)methyl)phenyl)-3-(3-(2-(methoxymethyl)-5-methylphenyl)-4-oxothiazolidin-2-ylidene)urea]	0	0
Cc1cc(N2C(=O)CS/C2=N\C(=O)Nc2ccc(COc3ncn(-c4ccc(OC(F)(F)F)cc4)n3)cc2F)c(C(C)C)cc1F [F12, (Z)-1-(3-(4-Fluoro-2-isopropyl-5-methylphenyl)-4-oxothiazolidin-2-ylidene)-3-(2-fluoro-4-(((1-(4-(trifluoromethoxy)phenyl)-1H-1,2,4-triazol-3-yl)oxy)methyl)phenyl)urea]	50 to 100	50 to 100
CCCc1ccc(C)cc1N1C(=O)CS/C1=N\C(=O)Nc1ccc(COc2ncn(-c3ccc(OC(F)(F)F)cc3)n2)cn1 [F13, (Z)-1-(3-(5-Methyl-2-propylphenyl)-4-oxothiazolidin-2-ylidene)-3-(5-(((1-(4-(trifluoromethoxy)phenyl)-1H-1,2,4-triazol-3-yl)oxy)methyl)pyridin-2-yl)urea]	50 to 100	50 to 100
Cc1ccc(C(C)C)c(N2C(=O)CS/C2=N\C(=O)Nc2ccc(COc3ncn(-c4ccc(OC(F)(F)F)cc4)n3)cn2)c1 [F14, (Z)-1-(3-(2-Isopropyl-5-methylphenyl)-4-oxothiazolidin-2-ylidene)-3-(5-(((1-(4-(trifluoromethoxy)phenyl)-1H-1,2,4-triazol-3-yl)oxy)methyl)pyridin-2-yl)urea]	50 to 100	50 to 100
Cc1ccc(C(C)C)c(N2C(=O)CS/C2=N\C(=O)Nc2ccc(OCc3ncn(-c4ccc(OC(F)(F)F)cc4)n3)cc2)c1 [F15, (Z)-1-(3-(2-Isopropyl-5-methylphenyl)-4-oxothiazolidin-2-ylidene)-3-(4-((1-(4-(trifluoromethoxy)phenyl)-1H-1,2,4-triazol-3-yl)methoxy)phenyl)urea]	50 to 100	50 to 100
Cc1ccc(C(C)C)c(N2C(=O)CS/C2=N\C(=O)Nc2ccc(OCc3ncn(-c4ccc(OC(F)(F)F)cc4)n3)cc2F)c1 [F16, (Z)-1-(2-Fluoro-4-((1-(4-(trifluoromethoxy)phenyl)-1H-1,2,4-triazol-3-yl)methoxy)phenyl)-3-(3-(2-isopropyl-5-methylphenyl)-4-oxothiazolidin-2-ylidene)urea]	50 to 100	50 to 100
Cc1ccc(C(C)C)c(N2C(=O)CS/C2=N\C(=O)Nc2c(F)cc(OCc3ncn(-c4ccc(OC(F)(F)F)cc4)n3)cc2F)c1 [F18, (Z)-1-(2,6-Difluoro-4-((1-(4-(trifluoromethoxy)phenyl)-1H-1,2,4-triazol-3-yl)methoxy)phenyl)-3-(3-(2-isopropyl-5-methylphenyl)-4-oxothiazolidin-2-ylidene)urea]	50 to 100	50 to 100
COCc1ccc(C)cc1N1C(=O)CS/C1=N\C(=O)Nc1c(F)cc(OCc2ncn(-c3ccc(OC(F)(F)F)cc3)n2)cc1F [F19, (Z)-1-(2,6-Difluoro-4-((1-(4-(trifluoromethoxy)phenyl)-1H-1,2,4-triazol-3-yl)methoxy)phenyl)-3-(3-(2-(methoxymethyl)-5-methylphenyl)-4-oxothiazolidin-2-ylidene)urea]	50 to 100	50 to 100
COC(C)c1ccc(C)cc1N1C(=O)CS/C1=N\C(=O)Nc1ccc(OCc2ncn(-c3ccc(OC(F)(F)F)cc3)n2)cc1F (stereo not shown) [F20, (Z)-1-(2-Fluoro-4-((1-(4-(trifluoromethoxy)phenyl)-1H-1,2,4-triazol-3-yl)methoxy)phenyl)-3-(3-(2-(1-methoxyethyl)-5-methylphenyl)-4-oxothiazolidin-2-ylidene)urea]	50 to 100	50 to 100
CCCc1ccc(C)cc1N1C(=O)CS/C1=N\C(=O)Nc1ccc(OCc2ncn(-c3ccc(OC(F)(F)F)cc3)n2)cc1F [F23, (Z)-1-(2-Fluoro-4-((1-(4-(trifluoromethoxy)phenyl)-1H-1,2,4-triazol-3-yl)methoxy)phenyl)-3-(3-(5-methyl-2-propylphenyl)-4-oxothiazolidin-2-ylidene)urea]	50 to 100	50 to 100
Cc1ccc(C(C)C)c(N2C(=O)CS/C2=N\C(=O)Nc2ccc(OCc3ncn(-c4ccc(OC(F)(F)F)cc4)n3)cc2C)c1 [F25, (Z)-1-(3-(2-Isopropyl-5-methylphenyl)-4-oxothiazolidin-2-ylidene)-3-(2-methyl-4-((1-(4-(trifluoromethoxy)phenyl)-1H-1,2,4-triazol-3-yl)methoxy)phenyl)urea]	50 to 100	50 to 100
CCCc1ccc(C)cc1N1C(=O)CS/C1=N\C(=O)Nc1ccc(OCc2ncn(-c3ccc(OC(F)(F)F)cc3)n2)cc1C [F26, (Z)-1-(3-(5-Methyl-2-propylphenyl)-4-oxothiazolidin-2-ylidene)-3-(2-methyl-4-((1-(4-(trifluoromethoxy)phenyl)-1H-1,2,4-triazol-3-yl)methoxy)phenyl)urea]	50 to 100	50 to 100
COCc1ccc(C)cc1N1C(=O)CS/C1=N\C(=O)Nc1ccc(OCc2ncn(-c3ccc(OC(F)(F)F)cc3)n2)cc1C [F27, (Z)-1-(3-(2-(Methoxymethyl)-5-methylphenyl)-4-oxothiazolidin-2-ylidene)-3-(2-methyl-4-((1-(4-(trifluoromethoxy)phenyl)-1H-1,2,4-triazol-3-yl)methoxy)phenyl)urea]	50 to 100	50 to 100
